Results reported in the NIST ThermoML archive (doi:10.1016/j.jct.2010.12.028).
± gives the expanded uncertainty stated by the source.

How the values were obtained:
[1] = xn = mol fraction of the nth substance listed; settings: 101 kPa, Liquid; for speed of sound: Sing-around technique in a fixed-path interferometer; for mass density: Vibrating tube method
[2] = excess molar enthalpy (molar enthalpy of mixing); xn = mol fraction of the nth substance listed; settings: 308.15 K, 101 kPa, Liquid

Cc1cccnc1 [3-methylpyridine] + Cc1ccccc1N
Settings	excess molar enthalpy, two-drop calorimeter [kcal/mol]	mass density, 298.15 K [kg/m3]	mass density, 303.15 K [kg/m3]	mass density, 308.15 K [kg/m3]	speed of sound, 298.15 K [m/s]	speed of sound, 303.15 K [m/s]	speed of sound, 308.15 K [m/s]
[1], x2 = 0.0447	–	955.059 ± 0.24	950.551 ± 0.24	945.98 ± 0.24	1433 ± 2.3	1413 ± 2.3	1393.3 ± 2.3
[1], x2 = 0.1132	–	959.404 ± 0.24	954.953 ± 0.24	950.452 ± 0.24	1446.4 ± 2.3	1426.4 ± 2.3	1407 ± 2.3
[1], x2 = 0.1771	–	963.134 ± 0.24	958.721 ± 0.24	954.262 ± 0.24	1458.6 ± 2.3	1438.8 ± 2.3	1419.5 ± 2.3
[1], x2 = 0.2069	–	964.775 ± 0.24	960.381 ± 0.24	955.934 ± 0.24	1464.1 ± 2.3	1444.5 ± 2.3	1425.1 ± 2.3
[1], x2 = 0.2467	–	966.875 ± 0.24	962.502 ± 0.24	958.079 ± 0.24	1471.5 ± 2.3	1451.9 ± 2.3	1432.5 ± 2.3
[1], x2 = 0.2888	–	968.994 ± 0.24	964.629 ± 0.24	960.232 ± 0.24	1479.1 ± 2.3	1459.8 ± 2.3	1440.4 ± 2.3
[1], x2 = 0.3112	–	970.081 ± 0.24	965.722 ± 0.24	961.335 ± 0.24	1483.1 ± 2.3	1463.9 ± 2.3	1444.3 ± 2.3
[1], x2 = 0.3624	–	972.469 ± 0.24	968.119 ± 0.24	963.751 ± 0.24	1492.2 ± 2.4	1473.1 ± 2.3	1453.4 ± 2.3
[1], x2 = 0.4182	–	974.916 ± 0.24	970.586 ± 0.24	966.234 ± 0.24	1502 ± 2.4	1483 ± 2.3	1463.2 ± 2.3
[1], x2 = 0.4632	–	976.799 ± 0.24	972.478 ± 0.24	968.134 ± 0.24	1509.7 ± 2.4	1490.6 ± 2.4	1470.9 ± 2.3
[1], x2 = 0.5336	–	979.577 ± 0.24	975.273 ± 0.24	970.94 ± 0.24	1521.7 ± 2.4	1502.6 ± 2.3	1482.7 ± 2.3
[1], x2 = 0.5778	–	981.226 ± 0.24	976.931 ± 0.24	972.616 ± 0.24	1529.2 ± 2.4	1509.7 ± 2.4	1489.9 ± 2.3
[1], x2 = 0.6334	–	983.223 ± 0.24	978.936 ± 0.24	974.642 ± 0.24	1538.6 ± 2.4	1518.8 ± 2.4	1499 ± 2.4
[1], x2 = 0.6967	–	985.375 ± 0.24	981.112 ± 0.24	976.836 ± 0.24	1549.2 ± 2.4	1528.8 ± 2.3	1509.3 ± 2.4
[1], x2 = 0.7372	–	986.701 ± 0.24	982.449 ± 0.24	978.187 ± 0.24	1556 ± 2.4	1535.1 ± 2.4	1515.8 ± 2.4
[1], x2 = 0.8156	–	989.151 ± 0.24	984.927 ± 0.24	980.689 ± 0.24	1569.5 ± 2.4	1547.5 ± 2.4	1528.4 ± 2.4
[1], x2 = 0.8842	–	991.171 ± 0.23	986.982 ± 0.24	982.772 ± 0.24	1581.5 ± 2.4	1558.4 ± 2.4	1539.5 ± 2.4
[1], x2 = 0.9711	–	993.588 ± 0.23	989.441 ± 0.23	985.272 ± 0.24	1597.2 ± 2.4	1572.8 ± 2.4	1553.6 ± 2.4
[2], x2 = 0.0503	-0.0794 ± 0.00359	–	–	–	–	–	–
[2], x2 = 0.0843	-0.125 ± 0.00526	–	–	–	–	–	–
[2], x2 = 0.1425	-0.194 ± 0.00789	–	–	–	–	–	–
[2], x2 = 0.1901	-0.236 ± 0.00956	–	–	–	–	–	–
[2], x2 = 0.2323	-0.268 ± 0.011	–	–	–	–	–	–
[2], x2 = 0.2837	-0.301 ± 0.0122	–	–	–	–	–	–
[2], x2 = 0.3334	-0.321 ± 0.0131	–	–	–	–	–	–
[2], x2 = 0.3783	-0.334 ± 0.0136	–	–	–	–	–	–
[2], x2 = 0.4436	-0.337 ± 0.0136	–	–	–	–	–	–
[2], x2 = 0.4926	-0.337 ± 0.0136	–	–	–	–	–	–
[2], x2 = 0.5487	-0.323 ± 0.0131	–	–	–	–	–	–
[2], x2 = 0.5902	-0.312 ± 0.0127	–	–	–	–	–	–
[2], x2 = 0.6643	-0.281 ± 0.0115	–	–	–	–	–	–
[2], x2 = 0.7182	-0.248 ± 0.01	–	–	–	–	–	–
[2], x2 = 0.7789	-0.209 ± 0.0086	–	–	–	–	–	–
[2], x2 = 0.8348	-0.163 ± 0.00669	–	–	–	–	–	–
[2], x2 = 0.8937	-0.11 ± 0.00454	–	–	–	–	–	–

Cc1ccncc1 [4-methylpyridine] + Cc1ccccc1N
[1]
Settings	mass density, 298.15 K [kg/m3]	mass density, 303.15 K [kg/m3]	mass density, 308.15 K [kg/m3]	speed of sound, 298.15 K [m/s]	speed of sound, 303.15 K [m/s]	speed of sound, 308.15 K [m/s]
x2 = 0.0525	953.707 ± 0.24	949.033 ± 0.24	944.539 ± 0.24	1440.5 ± 2.3	1419.5 ± 2.3	1399.3 ± 2.3
x2 = 0.1236	958.201 ± 0.24	953.635 ± 0.24	949.213 ± 0.24	1452.6 ± 2.3	1431.8 ± 2.3	1412.2 ± 2.3
x2 = 0.1357	958.939 ± 0.24	954.384 ± 0.24	949.974 ± 0.24	1454.8 ± 2.3	1433.9 ± 2.3	1414.4 ± 2.3
x2 = 0.1839	961.774 ± 0.24	957.264 ± 0.24	952.886 ± 0.24	1463.1 ± 2.3	1442.5 ± 2.3	1423.2 ± 2.3
x2 = 0.2328	964.507 ± 0.24	960.045 ± 0.24	955.673 ± 0.24	1471.4 ± 2.3	1451.2 ± 2.3	1432.1 ± 2.3
x2 = 0.2655	966.252 ± 0.24	961.821 ± 0.24	957.455 ± 0.24	1477.1 ± 2.3	1457 ± 2.3	1438.1 ± 2.3
x2 = 0.3023	968.154 ± 0.24	963.746 ± 0.24	959.382 ± 0.24	1483.4 ± 2.3	1463.5 ± 2.3	1444.7 ± 2.3
x2 = 0.3539	970.688 ± 0.24	966.314 ± 0.24	961.964 ± 0.24	1492.2 ± 2.4	1472.7 ± 2.3	1453.9 ± 2.3
x2 = 0.4133	973.431 ± 0.24	969.1 ± 0.2	964.753 ± 0.24	1502.4 ± 2.4	1483 ± 2.3	1464.4 ± 2.3
x2 = 0.4863	976.578 ± 0.24	972.285 ± 0.24	967.972 ± 0.24	1514.7 ± 2.4	1495.5 ± 2.4	1476.8 ± 2.3
x2 = 0.5256	978.183 ± 0.24	973.912 ± 0.24	969.611 ± 0.24	1521.3 ± 2.4	1501.9 ± 2.4	1483.2 ± 2.3
x2 = 0.5671	979.804 ± 0.24	975.56 ± 0.24	971.274 ± 0.24	1528.2 ± 2.4	1508.7 ± 2.4	1490 ± 2.3
x2 = 0.6272	982.039 ± 0.24	977.832 ± 0.24	973.587 ± 0.24	1538.3 ± 2.4	1518.4 ± 2.4	1499.7 ± 2.3
x2 = 0.6963	984.487 ± 0.24	980.309 ± 0.24	976.116 ± 0.24	1549.8 ± 2.4	1529.2 ± 2.4	1510.4 ± 2.4
x2 = 0.7674	986.874 ± 0.24	982.738 ± 0.24	978.601 ± 0.24	1561.7 ± 2.4	1540.2 ± 2.4	1521.3 ± 2.4
x2 = 0.8234	988.699 ± 0.24	984.584 ± 0.24	980.475 ± 0.24	1571.2 ± 2.4	1548.8 ± 2.4	1530 ± 2.4
x2 = 0.8657	990.061 ± 0.24	985.955 ± 0.24	981.851 ± 0.24	1578.4 ± 2.4	1555.4 ± 2.4	1536.6 ± 2.4
x2 = 0.9537	992.867 ± 0.24	988.752 ± 0.24	984.639 ± 0.24	1594 ± 2.4	1569.8 ± 2.4	1550.6 ± 2.4

[2]
Settings	excess molar enthalpy [kcal/mol]
x2 = 0.0426	-0.0583 ± 0.00263
x2 = 0.0815	-0.106 ± 0.00454
x2 = 0.1339	-0.166 ± 0.00693
x2 = 0.1824	-0.211 ± 0.0086
x2 = 0.2243	-0.246 ± 0.01
x2 = 0.2715	-0.282 ± 0.0115
x2 = 0.3196	-0.305 ± 0.0124
x2 = 0.3825	-0.332 ± 0.0136
x2 = 0.4238	-0.341 ± 0.0139
x2 = 0.4783	-0.342 ± 0.0139
x2 = 0.5362	-0.338 ± 0.0139
x2 = 0.5915	-0.322 ± 0.0131
x2 = 0.6426	-0.303 ± 0.0124
x2 = 0.7121	-0.261 ± 0.0108
x2 = 0.7827	-0.212 ± 0.0086
x2 = 0.8211	-0.178 ± 0.00741
x2 = 0.8916	-0.114 ± 0.00478
x2 = 0.9672	-0.0361 ± 0.00182
